Measured values taken from US20110195929A1, “COMPOUNDS FOR THE TREATMENT OF FLAVIVIRAL INFECTIONS” (SUMMIT CORPORATION PLC, priority 2008, published 2011).

Key:
Naringinase = assay: Glycosidase inhibition: Naringinase; format: biochemical, Penecillium decumbens; conditions: 1 mg/ml; pH 4.0, 20° C
Description: (§1) Inhibition of the N-linked glycan trimming enzymes alpha-Glucosidases I and II or alpha-Mannosidases I and II are thought to be related to the anti-viral activity of castanospermine (Compound 104) and 1-deoxynojirimycin (Compound 193). […] All enzymes were purchased from Sigma, as were the appropriate p-nitrophenyl substrates. Assays were carried out in microtitre plates. Enzymes were assayed in 0.1M citric acid/0.2M di-sodium hydrogen phosphate (McIlvaine) buffers at the optimum pH for the enzyme. All assays were carried out at 20° C. For screening assays the incubation assay consisted of 10 μl of enzyme solution, 10 μl of inhibitor solution (made up in water at 5 mM) and 50 μl of the appropriate 5 mM p-nitrophenyl substrate (3.57 mM final conc.) made up in McIlvaine buffer at the optimum pH for the enzyme.
(§2) The reactions were stopped with 0.4M glycine (pH 10.4) during the exponential phase of the reaction, which was determined at the beginning of the assay using blanks with water, which were incubated for a range of time periods to measure the reaction rate using 5 mM substrate solution. Endpoint absorbances were read at 405 nm with a Bio-rad microtitre plate reader (Benchmark). Water was substituted for the inhibitors in the blanks.

α-D-mannosidase = molecular target: T1, α-D-mannosidase (Canavalia ensiformis, UniProt C0HJB3); assay: Glycosidase inhibition: α-D-mannosidase; format: biochemical, Jack beans (Canavalia ensiformis); conditions: 1 mg/ml; pH 4.5, 20° C
T1 construct: purchased Sigma
T1 sequence (C0HJB3 1-981): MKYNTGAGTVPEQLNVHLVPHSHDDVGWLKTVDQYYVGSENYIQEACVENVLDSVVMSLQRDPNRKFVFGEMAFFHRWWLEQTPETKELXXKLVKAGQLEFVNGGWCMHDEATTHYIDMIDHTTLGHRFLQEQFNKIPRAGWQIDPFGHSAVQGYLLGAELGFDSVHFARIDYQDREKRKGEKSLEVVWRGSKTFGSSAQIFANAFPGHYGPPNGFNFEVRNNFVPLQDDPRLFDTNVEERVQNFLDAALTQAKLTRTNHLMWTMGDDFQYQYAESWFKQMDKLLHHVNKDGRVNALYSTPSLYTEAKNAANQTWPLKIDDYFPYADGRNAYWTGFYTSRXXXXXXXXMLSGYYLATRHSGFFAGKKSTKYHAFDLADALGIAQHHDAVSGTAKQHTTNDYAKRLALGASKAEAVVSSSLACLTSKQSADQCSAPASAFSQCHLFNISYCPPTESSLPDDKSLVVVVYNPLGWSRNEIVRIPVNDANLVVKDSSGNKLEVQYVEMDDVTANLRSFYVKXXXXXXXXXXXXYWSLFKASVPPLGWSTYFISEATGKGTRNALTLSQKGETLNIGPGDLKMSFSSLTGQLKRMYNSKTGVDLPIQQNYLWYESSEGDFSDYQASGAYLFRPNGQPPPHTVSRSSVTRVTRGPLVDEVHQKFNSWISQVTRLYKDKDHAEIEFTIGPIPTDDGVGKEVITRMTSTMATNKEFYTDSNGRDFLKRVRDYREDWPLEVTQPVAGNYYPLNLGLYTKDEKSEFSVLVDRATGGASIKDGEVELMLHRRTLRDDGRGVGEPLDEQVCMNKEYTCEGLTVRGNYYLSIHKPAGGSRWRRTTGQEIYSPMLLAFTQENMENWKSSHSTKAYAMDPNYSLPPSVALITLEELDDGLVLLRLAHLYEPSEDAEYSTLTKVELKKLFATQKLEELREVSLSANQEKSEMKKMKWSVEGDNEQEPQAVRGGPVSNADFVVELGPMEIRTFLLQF
Description: as §1, §2

β-D-glucosidase = assay: Glycosidase inhibition: β-D-glucosidase; format: biochemical, Almonds (Prunus sp.); conditions: 1 mg/ml; pH 5.0, 20° C
Description: as §1, §2

β-D-galactosidase = assay: Glycosidase inhibition: β-D-galactosidase; format: biochemical, Bovine liver; conditions: 1 mg/ml; pH 7.3, 20° C
Description: as §1, §2

α-D-glucosidase [1] = assay: Glycosidase inhibition: α-D-glucosidase (Bacillus); format: biochemical, Bacillus stearothermophilus; conditions: 1 mg/ml; pH 6.0, 20° C
Description: as §1, §2

α-L-fucosidase = molecular target: T2, α-L-fucosidase (Bos taurus, UniProt Q2KIM0); assay: Glycosidase inhibition: α-L-fucosidase; format: biochemical, Bovine kidney; conditions: 1 mg/ml; pH 5.5, 20° C
T2 construct: purchased Sigma; host or cells: bovine kidney
T2 sequence (Q2KIM0 23-468): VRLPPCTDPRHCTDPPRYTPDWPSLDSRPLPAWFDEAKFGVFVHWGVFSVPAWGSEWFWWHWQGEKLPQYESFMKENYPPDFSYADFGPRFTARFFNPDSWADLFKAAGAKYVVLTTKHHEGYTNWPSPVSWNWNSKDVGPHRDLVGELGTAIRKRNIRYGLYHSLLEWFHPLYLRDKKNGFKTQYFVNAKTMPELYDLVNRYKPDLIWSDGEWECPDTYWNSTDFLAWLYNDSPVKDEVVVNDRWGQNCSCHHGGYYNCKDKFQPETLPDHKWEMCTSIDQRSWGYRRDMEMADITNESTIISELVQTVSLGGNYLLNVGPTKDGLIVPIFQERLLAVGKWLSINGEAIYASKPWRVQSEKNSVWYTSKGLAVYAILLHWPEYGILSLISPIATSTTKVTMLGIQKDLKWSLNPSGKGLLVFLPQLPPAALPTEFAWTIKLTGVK
Description: All enzymes were purchased from Sigma, as were the appropriate p-nitrophenyl substrates. Assays were carried out in microtitre plates. Enzymes were assayed in 0.1M citric acid/0.2M di-sodium hydrogen phosphate (McIlvaine) buffers at the optimum pH for the enzyme. All assays were carried out at 20° C. For screening assays the incubation assay consisted of 10 μl of enzyme solution, 10 μl of inhibitor solution (made up in water at 5 mM) and 50 μl of the appropriate 5 mM p-nitrophenyl substrate (3.57 mM final conc.) made up in McIlvaine buffer at the optimum pH for the enzyme.
as §2

α-D-glucosidase [2] = molecular target: T3, α-D-glucosidase (Oryza sativa subsp. japonica, UniProt Q653V7); assay: Glycosidase inhibition: α-D-glucosidase (rice); format: biochemical, rice (Oryza sativa); conditions: 1 mg/ml; pH 6.0, 20° C
T3 construct: purchased Sigma
Description: as §1, §2

α-D-galactosidase = molecular target: T4, α-D-galactosidase (Coffea arabica, UniProt Q42656); assay: Glycosidase inhibition: α-D-galactosidase; format: biochemical, Green coffee beans (Coffea sp.); conditions: 1 mg/ml; pH 6.5, 20° C
T4 construct: purchased Sigma
Description: as §1, §2

α-D-glucosidase [3] = molecular target: T5, α-D-glucosidase (Saccharomyces cerevisiae, UniProt P53341); assay: Glycosidase inhibition: α-D-glucosidase (yeast); format: biochemical, Saccharomyces cerevisiae (Baker's yeast); conditions: 1 mg/ml; pH 6.0, 20° C
T5 construct: purchased Sigma
Description: as §1, §2

[4] = test system: N-acetyl-β-D-glucosaminidase; assay: Glycosidase inhibition: N-acetyl-β-D-glucosaminidase; format: biochemical, Bovine kidney; conditions: 1 mg/ml; pH 4.25, 20° C
Description: as §1, §2

T5 sequence (P53341 whole entry): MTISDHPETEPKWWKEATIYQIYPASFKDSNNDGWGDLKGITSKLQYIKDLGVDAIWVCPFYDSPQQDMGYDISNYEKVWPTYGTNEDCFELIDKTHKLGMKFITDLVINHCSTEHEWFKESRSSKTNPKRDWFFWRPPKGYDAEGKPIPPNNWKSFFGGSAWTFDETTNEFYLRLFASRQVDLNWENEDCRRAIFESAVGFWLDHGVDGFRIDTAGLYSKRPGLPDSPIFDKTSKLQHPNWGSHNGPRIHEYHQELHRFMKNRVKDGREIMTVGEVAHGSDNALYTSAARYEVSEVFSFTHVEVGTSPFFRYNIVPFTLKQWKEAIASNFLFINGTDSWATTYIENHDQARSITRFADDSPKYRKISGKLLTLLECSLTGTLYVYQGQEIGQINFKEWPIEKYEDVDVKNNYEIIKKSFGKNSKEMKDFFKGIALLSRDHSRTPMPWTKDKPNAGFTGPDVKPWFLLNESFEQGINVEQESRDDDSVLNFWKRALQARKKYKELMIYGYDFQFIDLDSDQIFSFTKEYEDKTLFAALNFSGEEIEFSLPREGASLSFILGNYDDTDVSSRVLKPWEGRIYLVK
T4 sequence (Q42656 16-378): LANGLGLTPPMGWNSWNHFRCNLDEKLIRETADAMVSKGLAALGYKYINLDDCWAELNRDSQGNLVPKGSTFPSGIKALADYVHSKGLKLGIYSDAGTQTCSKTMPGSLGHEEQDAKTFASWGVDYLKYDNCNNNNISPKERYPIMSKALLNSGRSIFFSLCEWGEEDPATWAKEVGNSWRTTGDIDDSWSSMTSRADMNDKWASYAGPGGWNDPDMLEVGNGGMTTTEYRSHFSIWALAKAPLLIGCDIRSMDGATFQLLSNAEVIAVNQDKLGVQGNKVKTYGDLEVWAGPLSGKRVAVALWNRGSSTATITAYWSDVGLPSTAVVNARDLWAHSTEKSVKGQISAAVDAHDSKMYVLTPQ
T3 sequence (Q653V7 34-885): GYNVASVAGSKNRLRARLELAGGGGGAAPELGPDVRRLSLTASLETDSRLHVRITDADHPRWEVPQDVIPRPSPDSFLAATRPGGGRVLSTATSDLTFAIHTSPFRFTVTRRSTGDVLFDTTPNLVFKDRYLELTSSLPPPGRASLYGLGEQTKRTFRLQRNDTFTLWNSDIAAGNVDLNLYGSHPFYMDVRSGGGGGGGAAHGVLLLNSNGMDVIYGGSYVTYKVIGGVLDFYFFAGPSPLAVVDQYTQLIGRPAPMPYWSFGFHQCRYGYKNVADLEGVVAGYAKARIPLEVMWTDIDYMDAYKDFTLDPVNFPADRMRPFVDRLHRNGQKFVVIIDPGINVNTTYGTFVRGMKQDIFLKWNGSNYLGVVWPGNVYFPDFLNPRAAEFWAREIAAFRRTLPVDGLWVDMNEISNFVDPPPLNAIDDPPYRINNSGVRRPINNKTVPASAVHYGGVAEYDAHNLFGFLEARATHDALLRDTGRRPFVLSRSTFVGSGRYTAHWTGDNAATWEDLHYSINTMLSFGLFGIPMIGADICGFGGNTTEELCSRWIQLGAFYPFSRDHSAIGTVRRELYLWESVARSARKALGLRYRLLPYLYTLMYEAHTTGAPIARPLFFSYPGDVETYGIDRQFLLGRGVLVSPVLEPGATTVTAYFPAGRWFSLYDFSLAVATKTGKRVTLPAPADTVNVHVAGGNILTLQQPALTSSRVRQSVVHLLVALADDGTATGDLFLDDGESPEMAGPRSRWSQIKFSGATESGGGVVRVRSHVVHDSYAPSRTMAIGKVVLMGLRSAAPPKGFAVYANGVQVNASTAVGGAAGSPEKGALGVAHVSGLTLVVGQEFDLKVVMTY

OC[C@H]1NC[C@H](O)[C@@H](O)[C@@H]1O [Compound 193, 1-deoxynojirimycin, reference compound]
% inhibition Naringinase (Naringinase): 0%
% inhibition α-mannosidase (α-D-mannosidase): 0%
% inhibition β-glucosidase (β-D-glucosidase): 64%
% inhibition β-galactosidase (β-D-galactosidase): 0%
% inhibition α-gluc (Bacillus) (α-D-glucosidase [1]): 100%
% inhibition α-fucosidase (α-L-fucosidase): 0%
% inhibition α-gluc (rice) (α-D-glucosidase [2]): 100%
% inhibition α-galactosidase (α-D-galactosidase): 0%
% inhibition α-gluc (yeast) (α-D-glucosidase [3]): 35%
% inhibition N-acetyl-β-gluc [4]: 0%
